From patent US20250281462A1, “THERAPEUTICALLY EFFECTIVE ORAL ADMINISTRATION OF A 2 ARYLBENZIMIDAZOLE” (Tranquis Therapeutics, Inc., priority 2021, published 2025)
Where “and” joins values, the source holds several entries; their conditions need not be identical. Equal entries are not always repeated. Where two headings read alike, the source gives them in different places.

Tests used:
[1] = Plasma concentrations of TQS-168 and TQS-621 after single oral dose 50 mg/kg in mice, three formulations; type: in vivo
Experimental: In a second experiment, mice were administered 50 mg/kg TQS-168 by oral gavage. For Group 1, TQS-168 was prepared at a concentration of 5.0 mg/mL in a suspension with […] in PBS. For Group 2, TQS-168 was prepared at a concentration of 5.0 mg/mL as a solution in 10 polyethylene glycol (PEG) 400|30 Kleptose (Roquete)|60% water.
Plasma exposures for Group 1 mice (ng/mL) are presented in Table 2 and for Group 2 mice in Table 3.
C57BL/6 male mice were administered a single dose of TQS-168 at 50 mg/kg using one of three formulations: Group 1-5.0 mg/ml suspension in 0.5% methylcellulose in PBS; Group 2-5.0 mg/ml solution in PEG400 (Fluka) 10%|Kleptose (Roquette) 30%|sterile water 60%; Group 3-5.0 mg/ml suspension in Labrafil M 1944 CS (Gattefosse) 30%|Masine CC (Gattefosse) 5%|Miglyol 812N 10%|sterile water 55%.
Plasma concentrations of TQS-168 and TQS-621 were measured overtime.

[2] = Plasma and brain concentrations after single oral dose 45 mg/kg in mice; type: in vivo; settings: for Kp: brain, 45 mg/kg, mice, 45 mg/kg p.o.
Experimental: Mice were administered a single oral dose of 45 mg/kg TQS-168. TQS-168 was prepared at a concentration of 5.0 mg/mL as a solution in 10% polyethylene glycol (PEG) 400|130% Kleptose (Roquette) 60% water.
Concentrations in plasma and in brain were measured at various timepoints and various pharmacokinetic parameters were calculated, as shown below in Tables 4 and 5 and in FIGS. 19A and 19B.
TQS-168 was prepared as a 4.5 mg/ml solution in PEG400 10%| Kleptose 30% sterile water 60%. A single oral dose of 45 mg/kg was administered. Concentrations of TQS-621 were measured in plasma and brain over time.

[3] = mice plasma, TQS-168 50 mg/kg p.o., Group 1 (suspension, 0.5% methylcellulose in PBS), individual mouse, 50 mg/kg
[4] = mice plasma, TQS-168 50 mg/kg p.o., Group 2 (solution, PEG400/Kleptose/water), individual mouse, 50 mg/kg
[5] = mice plasma, TQS-168 50 mg/kg p.o., Group 3 (suspension, Labrafil/Masine/Miglyol/water), individual mouse, 50 mg/kg
[6] = mice brain, TQS-168 45 mg/kg p.o., solution PEG 400/Kleptose/water
[7] = mice plasma, TQS-168 45 mg/kg p.o., solution PEG 400/Kleptose/water
[8] = mouse, po, mice brain, TQS-168 45 mg/kg p.o., solution PEG 400/Kleptose/water
[9] = mouse, po, mice plasma, TQS-168 45 mg/kg p.o., solution PEG 400/Kleptose/water

CC(C)(C)c1ccc(-c2nc3ccccc3[nH]2)cc1 [TQS-168, 2-(4-tert-butylphenyl)-1H-benzimidazole]
concentration at 8 h ([1]; male, C57BL/6, mouse, plasma, po, 50 mg/kg, mice, 50 mg/kg p.o., Group 2 (solution, PEG 400/Kleptose/water), 8 hr, mean, read-out: Calculated Concentration in plasma): 427 ng/mL | concentration at 12 h ([1]; male, C57BL/6, mouse, plasma, po, 50 mg/kg, mice, 50 mg/kg p.o., Group 2 (solution, PEG 400/Kleptose/water), 12 hr, individual mouse, read-out: Calculated Concentration in plasma): 185 ng/mL | concentration at 12 h ([1]; male, C57BL/6, mouse, plasma, po, 50 mg/kg, mice, 50 mg/kg p.o., Group 2 (solution, PEG 400/Kleptose/water), 12 hr, mean, read-out: Calculated Concentration in plasma): 161 ng/mL | Cmax ([1]; mice plasma, 50 mg/kg p.o., Group 2 (solution), 50 mg/kg, read-out: Cmax): 7.9 µM | AUCInf [1, 3]: 5085 ng·h/mL and 14196 ng·h/mL and 5052 ng·h/mL | AUClast [1, 3]: 8046 ng·h/mL and 4822 ng·h/mL | Cmax [1, 3]: 1380 ng/mL and 704 ng/mL | t1/2 [1, 3]: 1.74 h and 9.47 h and 1.70 h | AUCInf [1, 4]: 11411 ng·h/mL and 11446 ng·h/mL | AUClast [1, 4]: 11058 ng·h/mL and 10525 ng·h/mL | Cmax [1, 4]: 2390 ng/mL and 2070 ng/mL | t1/2 [1, 4]: 2.22 h and 3.41 h | AUCInf [1, 5]: 4336 ng·h/mL and 3877 ng·h/mL | AUClast [1, 5]: 3924 ng·h/mL and 3753 ng·h/mL | Cmax [1, 5]: 752 ng/mL and 420 ng/mL | Tmax [1, 5]: 8 h | t1/2 [1, 5]: 2.23 h and 1.43 h | Cmax ([1]; mice plasma, TQS-168 50 mg/kg p.o., Group 3 (suspension, Labrafil/Masine/Miglyol/water), mean, 50 mg/kg): 594 ng/mL | Calculated Concentration in plasma ([1]; mice, 50 mg/kg p.o., Group 1 (suspension, methylcellulose in PBS), 0.25 hr, individual mouse, 50 mg/kg): 887 ng/mL and 485 ng/mL | Calculated Concentration in plasma ([1]; mice, 50 mg/kg p.o., Group 1 (suspension, methylcellulose in PBS), 0.5 hr, individual mouse, 50 mg/kg): 848 ng/mL and 1380 ng/mL and 619 ng/mL | Calculated Concentration in plasma ([1]; mice, 50 mg/kg p.o., Group 1 (suspension, methylcellulose in PBS), 1 hr, individual mouse, 50 mg/kg): 1310 ng/mL and 704 ng/mL | Calculated Concentration in plasma ([1]; mice, 50 mg/kg p.o., Group 1 (suspension, methylcellulose in PBS), 2 hr, individual mouse, 50 mg/kg): 839 ng/mL and 1050 ng/mL and 440 ng/mL | Calculated Concentration in plasma ([1]; mice, 50 mg/kg p.o., Group 1 (suspension, methylcellulose in PBS), 4 hr, individual mouse, 50 mg/kg): 479 ng/mL and 391 ng/mL | Calculated Concentration in plasma ([1]; mice, 50 mg/kg p.o., Group 1 (suspension, methylcellulose in PBS), 8 hr, individual mouse, 50 mg/kg): 254 ng/mL and 603 ng/mL and 480 ng/mL | Calculated Concentration in plasma ([1]; mice, 50 mg/kg p.o., Group 1 (suspension, methylcellulose in PBS), 12 hr, individual mouse, 50 mg/kg): 18.0 ng/mL and 450 ng/mL and 93.9 ng/mL | Calculated Concentration in plasma ([1]; mice, 50 mg/kg p.o., Group 1 (suspension, methylcellulose in PBS), 24 hr, individual mouse): BLOQ | Calculated Concentration in plasma ([1]; mice, 50 mg/kg p.o., Group 2 (solution, PEG 400/Kleptose/water), 0.25 hr, individual mouse, 50 mg/kg): 874 ng/mL and 1170 ng/mL | Calculated Concentration in plasma ([1]; mice, 50 mg/kg p.o., Group 2 (solution, PEG 400/Kleptose/water), 0.5 hr, individual mouse, 50 mg/kg): 2070 ng/mL and 1860 ng/mL | Calculated Concentration in plasma ([1]; mice, 50 mg/kg p.o., Group 2 (solution, PEG 400/Kleptose/water), 1 hr, individual mouse, 50 mg/kg): 2390 ng/mL and 2070 ng/mL | Calculated Concentration in plasma ([1]; mice, 50 mg/kg p.o., Group 2 (solution, PEG 400/Kleptose/water), 2 hr, individual mouse, 50 mg/kg): 1830 ng/mL and 1630 ng/mL | Calculated Concentration in plasma ([1]; mice, 50 mg/kg p.o., Group 2 (solution, PEG 400/Kleptose/water), 4 hr, individual mouse, 50 mg/kg): 1330 ng/mL and 949 ng/mL | Calculated Concentration in plasma ([1]; mice, 50 mg/kg p.o., Group 2 (solution, PEG 400/Kleptose/water), 8 hr, individual mouse, 50 mg/kg): 329 ng/mL and 579 ng/mL | Calculated Concentration in plasma ([1]; mice, 50 mg/kg p.o., Group 2 (solution, PEG 400/Kleptose/water), 12 hr, individual mouse, 50 mg/kg): 110 ng/mL and 187 ng/mL | Calculated Concentration in plasma ([1]; mice, 50 mg/kg p.o., Group 2 (solution, PEG 400/Kleptose/water), 24 hr, individual mouse): BLOQ | AUCExtr [2, 6]: 0.308% | AUCInf [2, 6]: 24668 ng·h/g | AUCInf/D [2, 6]: 548 kg·ng·h/g/mg | AUClast ([2]; mice brain, TQS-168 45 mg/kg p.o., solution PEG 400/Kleptose/water, last time point 24 hr): 24592 ng·h/g | AUCExtr [2, 7]: 0.188% | AUCInf/D [2, 7]: 302 kg·ng·h/mL/mg | Kp ([2]; mouse, po, read-out: Brain-to-plasma AUC ratio): 1.81 | Kp ([2]; mouse, po, read-out: Brain-to-plasma Cmax ratio): 1.84 | Cmax [2, 8]: 4260 ng/g | MRT inf [2, 8]: 3.45 h | Tmax [2, 8]: 1 h | half-life [2, 8]: 3.66 h | AUC(0-inf) [2, 9]: 13600 ng·h/mL | Cmax [2, 9]: 2310 ng/mL | MRT inf [2, 9]: 3.35 h | Tmax [2, 9]: 0.5 h | half-life [2, 9]: 3.26 h | AUC(0-t) ([2]; mouse, po, mice plasma, TQS-168 45 mg/kg p.o., solution PEG 400/Kleptose/water, last time point 24 hr): 13600 ng·h/mL
